Laboratory results reported in patent publication US8680094B2, “1, 4-benzoxazine compounds and derivatives thereof as therapeutic drugs for the treatment of neurodegenerative conditions” (Board of Regents, The University of Texas System, priority 2008, dated 2014).
Several values for one entry are separate records, joined by “and”; a condition that tells them apart may be missing. Identical values can stand only once.

Key:
[1] = test system: primary cortical neurons; assay: Aβ-induced death of primary cortical neurons; format: cell-based, rat; conditions: 5 uM aged Aβ25-35; viability 24 hours later
Protocol: Primary cultures of cortical neurons were cultured from embryonic day 18 rats. The cultures were treated 1-2 days later with 5 uM of aged Aβ peptide (Aβ25-35; purchased from Sigma-Aldrich). Neuronal viability was assayed 24 hours later.

[2] = test system: primary cortical neurons; assay: HCA-induced neurotoxicity in primary cortical neurons; format: cell-based, rat
[3] = test system: 3-NP-induced mouse model of Huntington's disease; assay: 3-nitropropionic acid (3-NP)-induced mouse model of Huntington's disease; format: in vivo
Protocol: 3-Nitropropionic acid administration and behavioral evaluation was done on 8-week old C57BL/6 male mice (Charles River Laboratories, Inc, Wilmington, Mass.) administered with 3-NP in ten intraperitoneal injections (50 mg/kg twice a day for 5 days) with or without HSB-13 (2 mg/kg). Injections of HSB-13 were performed 30 min before 3-NP administration. Control animals received saline injections. On the day following the 5 days of injection, locomotor activity was assessed using The TRU-SCAN® activity monitoring system (Coulborn Instruments, PA) as previously described (Chin et al., 2004; Chen et al., 2008b). The following behavioral parameters were selected: (1) Total movements time, (2) Total movement distance: the sum of all vectored X-Y coordinate changes in the floor plane, (3)Average distance per movement, (4) Mean velocity: the mean velocity of all X-T coordinate change defined movements. Following behavioral evaluation, the mice were deeply anesthetized and brains removed. The brains were fixed in 4% paraformaldehyde in 0.1 M phosphate buffer and cryoprotected in 20% sucrose in 0.1 M phosphate buffer. Coronal sections were cut on a cryostat at 40 microns and stained with cresyl violet (Sigma-Aldrich) as previously described (Chin et al., 2004; Chen et al., 2008b).
3-Nitropropionic acid administration and behavioral evaluation. 8-week old C57BL/6 male mice (Charles River Laboratories, Inc, Wilmington, Mass.) were administered with 3-NP in ten intraperitoneal injections (50 mg/kg twice a day for 5 days) with or without HSB-13 […]). Injections of HSB-13 were performed ˜30 min before 3-NP administration. Control animals received saline injections. On the day following the 5 days of injection, locomotor activity was assessed using THE TRU-SCAN® activity monitoring system (Coulborn Instruments, PA) as previously described (Chin et al. 2004). The following behavioral parameters were selected: (i) Total movements episodes: each movement in the floor plane is a series of coordinate changes with no rest for at least 1 sample interval, (2) Total movement distance: the sum of all vectored X-Y coordinate changes in the floor plane, and (3) Mean velocity: the mean velocity of all X-T coordinate change defined movements. Following behavioral evaluation, the mice were deeply anesthetized and brains removed. The brains were fixed in 4% paraformaldehyde in 0.1 M phosphate buffer and cryoprotected in 20% sucrose in 0.1 M phosphate buffer. Coronal sections were cut on a cryostat at 50 microns and stained with cresyl violet (Sigma).

[4] = test system: flies expressing human APP695; assay: APP695-induced toxicity in Drosophila (survival of flies); format: in vivo
Protocol: Survival of flies expressing human APP695 compared to controls. […] Bars indicate mean±SEM. FIG. 8 is an image showing HSB-13 protects HT-22 cells against HCA-induced toxicity. HT-22 cells were treated with no additives (Control), 2 mM HCA, or 2 mM HCA+25 μM HSB-13. The appearance of the cultures at 24 hours after treatment is shown.
Expression of human APP695 was induced ubiquitously by crossing transgenic flies carrying a UAS-APP695 construct (Fossgreen et al., 1998) with flies containing an actin-GAL4 promoter using the UAS/GAL4 system (Brand and Perrimon, 1993). Flies were raised at 25° C. in the dark on 10% yeast paste containing different concentrations of HSB-13 (0, 2.5, 5, and 50 μM). The percentage of surviving APP695-expressing progeny was determined by comparing them to control progeny carrying no promoter construct obtained in the same cross and therefore raised under identical conditions as described previously (Greeve et al., 2004).

## Nc1ccc2c(c1)NC(=O)/C(=C/c1cc(Br)c(O)c(Br)c1)O2 [HSB-13, (Z)-6-amino-2-(3,′5′-dibromo-4′-hydrozybenzylidene)-2H-benzo[b][1,4]oxazin-3(4H)-one]
[1]
  protection against Aβ toxicity: protects
[2]
  protection against HCA-induced neurotoxicity: protects
[3]; HSB-13 2 mg/kg body weight, 30 min before each 3-NP injection (50 mg/kg i.p. twice a day, 5 days), FIG. 7A
  3-NP-induced striatal degeneration (cresyl violet histology): substantially reduced
[3]; HSB-13 2 mg/kg, versus 3-NP alone, 15 min period, FIG. 7B
  locomotor performance: total movement time, total movement distance, average distance per movement, mean velocity: markedly higher
[3]; HSB-13 2.5 mg/kg body weight, FIG. 10A
  3-NP-induced striatal degeneration (cresyl violet histology): substantially reduced
[3]; HSB-13 2.5 mg/kg, versus 3-NP alone, FIG. 10B
  locomotor performance: total movement episodes, total movement distance, mean velocity: markedly higher
[4]; food containing HSB-13, all p-values<0.05
  survival rate compared to untreated flies: approximately 10 times
[4]; raised on food containing HSB-13, printed as 65% at 50 μM to 44% at 50 μM, untreated about 5%
  survival rate of APP-expressing flies compared to equally treated control flies: 65% and 44%
